Source: US20250034110A1, “LPAR1 ANTAGONISTS AND USES THEREOF” (Pipeline Therapeutics, Inc., priority 2021, published 2025)
Like-named read-outs stand apart in the source and are kept apart here.

Molecular target: human LPAR1 (Homo sapiens, UniProt Q92633)
Assay: In vitro functional assay of lysophosphatidic acid receptor 1 activity (calcium flux)
Type: cell-based
[1] = B103 cells stably expressing human LPAR1, calcium flux (Fluo-4 NW) after lysophosphatidic acid (18:1) at EC80, 100 pM to 10 μM, read-out: LPAR1 IC50

Sequence of human LPAR1 (Q92633 whole entry): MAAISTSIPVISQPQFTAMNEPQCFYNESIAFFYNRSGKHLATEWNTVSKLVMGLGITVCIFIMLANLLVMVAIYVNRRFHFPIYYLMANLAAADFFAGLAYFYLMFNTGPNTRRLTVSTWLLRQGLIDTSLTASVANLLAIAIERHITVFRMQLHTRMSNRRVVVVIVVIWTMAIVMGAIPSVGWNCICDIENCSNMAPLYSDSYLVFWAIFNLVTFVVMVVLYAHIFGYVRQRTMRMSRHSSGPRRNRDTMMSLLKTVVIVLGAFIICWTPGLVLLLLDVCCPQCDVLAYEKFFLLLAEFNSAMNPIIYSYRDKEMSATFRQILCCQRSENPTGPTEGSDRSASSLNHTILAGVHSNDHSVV

Compound	IC50 (LPAR1 IC50)	IC50 [1]
COc1ccc(NC(=O)N(c2ccccc2C(C)C)[C@H]2CCN(C(C)=O)C[C@H]2F)c(OC(F)F)n1 [Example 48, 1-((3R,4S)-1-acetyl-3-fluoropiperidin-4-yl)-3-(2-(difluoromethoxy)-6-methoxypyridin-3-yl)-1-(2-isopropylphenyl)urea]	0.01 to 0.1 µM	–
COc1ccc(NC(=O)N(c2ccccc2C(C)C)[C@H]2C[C@](O)(C(F)(F)C(=O)O)C2)c(OC(F)F)n1 [Example 324]	–	< 0.01 µM
COc1ccc(NC(=O)N(c2ccccc2C(C)C)[C@H]2CC[C@H](C(=O)NO)CC2)c(OC(F)F)n1 [Example 281]	–	0.01 to 0.1 µM
COc1ccc(NC(=O)N(CC23CC(C(=O)O)(C2)C3(F)F)c2ccccc2C(C)C)c(OC(F)F)n1 [Example 234]	–	0.01 to 0.1 µM
Cc1ccc(NC(=O)N(CC2CC(C(=O)O)C2)c2ccccc2C(C)C)c(OC(F)F)n1 (centres unmarked) [Example 170]	–	< 0.01 µM
COc1cc(Br)c(F)cc1NC(=O)N(c1ccccc1C(C)C)[C@H]1CC[C@H](C(=O)O)CC1 [Example 299, (1r,4r)-4-(3-(4-bromo-5-fluoro-2-methoxyphenyl)-1-(2-isopropylphenyl)ureido)cyclohexane-1-carboxylic acid]	–	< 0.01 µM
Cc1ccc(NC(=O)N(c2ccccc2C(C)C)[C@H]2CC[C@@H](C#N)CC2)c(OC(F)F)n1 [Example 240, 1-((1s,4s)-4-cyanocyclohexyl)-3-(2-(difluoromethoxy)-6-methylpyridin-3-yl)-1-(2-isopropylphenyl)urea]	–	0.1 to 1 µM
CC(=O)N1CCC(N(C(=O)Nc2ccc(C)[n+]([O-])c2OC(F)F)c2ccccc2C(C)C)CC1 [Example 197, 3-(3-(1-acetylpiperidin-4-yl)-3-(2-isopropylphenyl)ureido)-2-(difluoromethoxy)-6-methylpyridine 1-oxide]	> 1 µM	–
COc1ccc(NC(=O)N(c2ccccc2C(C)C)[C@@H]2C[C@H]3C[C@@H]2CN3C(C)=O)c(OC(F)F)n1 [Example 58, 1-((1R,4R,5R)-2-acetyl-2-azabicyclo[2.2.1]heptan-5-yl)-3-(2-(difluoromethoxy)-6-methoxypyridin-3-yl)-1-(2-isopropylphenyl)urea]	> 1 µM	–
COc1ccc(NC(=O)N(c2ccccc2C(C)C)[C@H]2C[C@H](C(=O)O)C2)c(OC(F)F)n1 [Example 151]	–	0.01 to 0.1 µM
CCOc1ccc(NC(=O)N(c2ccccc2C(C)C)C2CCN(C(C)=O)CC2)c(OC(F)F)n1 [Example 107]	0.01 to 0.1 µM	–
Cc1ccc(NC(=O)N(c2ccccc2C(C)C)[C@@H]2CCOC2)c(OC(F)F)n1 [Example 16, (R)-3-(2-(difluoromethoxy)-6-methylpyridin-3-yl)-1-(2-isopropylphenyl)-1-(tetrahydrofuran-3-yl)urea]	–	0.01 to 0.1 µM
Cc1ccc(NC(=O)N(c2ccccc2C(C)C)[C@H]2CC[C@H](O)CC2)c(OC(F)F)n1 [Example 239, 3-(2-(difluoromethoxy)-6-methylpyridin-3-yl)-1-((1r,4r)-4-hydroxycyclohexyl)-1-(2-isopropylphenyl)urea]	–	0.1 to 1 µM
CC(C)Oc1cc(C(F)F)ncc1NC(=O)N(c1ccccc1C(C)C)[C@H]1CC[C@H](C(=O)O)CC1 [Example 295, (1r,4r)-4-(3-(6-(difluoromethyl)-4-isopropoxypyridin-3-yl)-1-(2-isopropylphenyl)ureido)cyclohexane-1-carboxylic acid]	–	0.1 to 1 µM
Cc1ccc(NC(=O)N(c2ccccc2C(C)C)[C@@H]2CC[C@H](C(=O)O)C2)c(OC(F)F)n1 [Example 302]	–	0.01 to 0.1 µM
Cc1ccc(NC(=O)N(c2ccccc2C(C)C)C2CC(CC(=O)O)C2)c(OC(F)F)n1 (centres unmarked) [Example 160, 2-(3-(3-(2-(difluoromethoxy)-6-methylpyridin-3-yl)-1-(2-isopropylphenyl)ureido)cyclobutyl)acetic acid]	–	< 0.01 µM
Cc1ccc(NC(=O)N(CC2COC2)c2ccccc2C(C)C)c(OC(F)F)n1 [Example 15, 3-(2-(difluoromethoxy)-6-methylpyridin-3-yl)-1-(2-isopropylphenyl)-1-(oxetan-3-ylmethyl)urea]	–	0.01 to 0.1 µM
